One assay relates to A549. Nature of the assay: In vitro inhibition test for cancer cell proliferation (MTT), A549. The assay is classed as cell-based. Particulars: unit inferred.
The next assay deals with HeLa. The experiment in a line: In vitro inhibition test for cancer cell proliferation (MTT), HeLa. In kind it is cell-based. Particulars: 24 h or 48 h after addition, unit inferred.
For the next assay, the system named is MCF-7. Nature of the assay: In vitro inhibition test for cancer cell proliferation (MTT), MCF-7. The assay is classed as cell-based. Particulars: unit inferred.
The subject of a further assay is L929. Nature of the assay: In vitro cell proliferation inhibition test (MTT), L929. Particulars: unit inferred. In kind it is cell-based.
Assay [1] relates to non-small cell lung cancer cell H460. The experiment in a line: In vitro proliferation inhibition, H460. To be noted: unit inferred. In kind it is cell-based. The method, then: (§1) Test method: pancreatic cancer cells CFPAC-1 were cultured in a Dalbeco-improved Eagle medium with the addition of 10% FBS and 5% double-antibody. CFPAC-1 cancer cells were inoculated into a 96-well plate for incubation for 24 h; in the following day, test compounds having various concentrations of (100, 20, 10, 1, 0.1, 0.01, and 0.001 μM) and positive control agents were added per well; corresponding volume of fresh medium was added to blank control. After addition for 24 h or 48 h, cell proliferation was evaluated by chromogenic reaction of MTT formazan.
(§2) In addition, compounds (I), (II), (III), and (IV) of the present invention have good inhibition activity against the proliferation of other cancer cells, including non-small cell lung cancer cell (H460, H1299), liver tumor cell (HepG2), rectal cancer cell (HT29), leukemia cell (CCRF-CEM), prostate cancer cell (PC-3), ovarian carcinoma cell (SKOV-3), melanoma cell (A375), myeloma cell (RPMI-8226), esophageal carcinoma cell (TE-1), pancreatic cancer cell (CFPAC-1, PANC-1, SW1990, ASPC-1, and BXPC-3), bladder cancer cell (5637), and gastric cancer cell (KATO-III).

Assay [2] concerns non-small cell lung cancer cell H1299. The experiment in a line: In vitro proliferation inhibition, H1299. In kind it is cell-based. To be noted: unit inferred. The method, then:
as §1, §2

The test system of the next assay is liver tumor cell HepG2. Nature of the assay: In vitro proliferation inhibition, HepG2. In kind it is cell-based. Particulars: unit inferred. The method, then: as §1, §2
For a further assay, the system named is rectal cancer cell HT29. Nature of the assay: In vitro proliferation inhibition, HT29. In kind it is cell-based. Particulars: unit inferred. The method, then:
as §1, §2

In another assay the test system is leukemia cell CCRF-CEM. Nature of the assay: In vitro proliferation inhibition, CCRF-CEM. Particulars: unit inferred. The assay is classed as cell-based. The method, then: as §1, §2
Assay [3] concerns prostate cancer cell PC-3. The experiment in a line: In vitro proliferation inhibition, PC-3. The assay is classed as cell-based. To be noted: unit inferred. The method, then:
as §1, §2

Assay [4] relates to ovarian carcinoma cell SKOV-3. Nature of the assay: In vitro proliferation inhibition, SKOV-3. The assay is classed as cell-based. To be noted: unit inferred. The protocol:
as §1, §2

For the next assay, the system named is melanoma cell A375. Nature of the assay: In vitro proliferation inhibition, A375. In kind it is cell-based. To be noted: unit inferred. The protocol:
as §1, §2

The next assay relates to myeloma cell RPMI-8226. The experiment in a line: In vitro proliferation inhibition, RPMI-8226. Particulars: unit inferred. In kind it is cell-based. The protocol:
as §1, §2

The test system of assay [5] is esophageal carcinoma cell TE-1. The experiment in a line: In vitro proliferation inhibition, TE-1. The assay is classed as cell-based. Particulars: unit inferred. The protocol: as §1, §2
In assay [6] the test system is pancreatic cancer cells CFPAC-1. The experiment in a line: In vitro proliferation inhibition, CFPAC-1. Particulars: unit inferred. The assay is classed as cell-based. The method, then:
as §1, §2

The subject of assay [7] is pancreatic cancer cell PANC-1. The experiment in a line: In vitro proliferation inhibition, PANC-1. The assay is classed as cell-based. Particulars: unit inferred. The method, then: as §1, §2
Assay [8] deals with pancreatic cancer cell SW1990. The experiment in a line: In vitro proliferation inhibition, SW1990. The assay is classed as cell-based. To be noted: unit inferred. The protocol:
as §1, §2

Assay [9] deals with pancreatic cancer cell ASPC-1. The experiment in a line: In vitro proliferation inhibition, ASPC-1. In kind it is cell-based. To be noted: unit inferred. The protocol: as §1, §2
In assay [10] the test system is pancreatic cancer cell BXPC-3. Nature of the assay: In vitro proliferation inhibition, BXPC-3. In kind it is cell-based. Particulars: unit inferred. The method, then: as §1, §2
The next assay concerns bladder cancer cell 5637. The experiment in a line: In vitro proliferation inhibition, 5637. The assay is classed as cell-based. Particulars: unit inferred. The method, then:
as §1, §2

For assay [11], the system named is gastric cancer cell KATO-III. Nature of the assay: In vitro proliferation inhibition, KATO-III. To be noted: unit inferred. In kind it is cell-based. The protocol: as §1, §2
Assay [12] has as its system CFPAC-1 pancreatic cancer cells. The experiment in a line: In vivo inhibition test of cancer cell proliferation, CFPAC-1 transplant. Details: species or system Balb/c naked mouse. To be noted: 7 mg/kg, once every other three days, 7 times; gross tumor volume. The protocol: Test method: 3×10^7 CFPAC-1 pancreatic cancer cells were transplanted to subcutaneous tissues of armpit of a Balb/c naked mouse; administration was conducted when the tumor grew to 50-100 mm^3, 100-200 mm^3, and greater than 200 mm^3; the mouse was administered once every other three days, 7 times in total, and 7 mg/kg each time. Normal saline was injected in the control group. Tumor length and diameter were measured by calipers and weight of the moue was weighed until the next day of the final administration. Gross tumor volume was calculated by the following equation:
gross tumor volume (mm^3)=½×[short diameter (mm)]^2×long diameter (mm)

[13] abbreviates: Homo sapiens, A549, 24 h or 48 h after addition.
Where [14] appears, read: Homo sapiens, MCF7, 24 h or 48 h after addition.
The mark [15] stands for this setting: Mus musculus, L929, 24 h or 48 h after addition.

For orientation: IC50 means the point on the concentration scale where inhibition reaches its midpoint. Read a low IC50 as inhibition by little substance.

As to `CON=C1c2ccccc2C(=O)c2c1[n+](C)cn2C.[I-]` [Compound 123, (E) and (Z)-4-(methoxylimino)-1,3-dimethyl-9-oxo-4,9-dihydro-1H-naphthol[2,3-d]imidazole-3-iodide], the IC50 with A549 (24 h or 48 h after addition) was 7 nM; with HeLa, 23000 nM; in the assay on MCF-7 (24 h or 48 h after addition), 1800 nM; in the assay on L929 (24 h or 48 h after addition) it was 3800 nM; in assay [1] it was 220 nM; in assay [2], 430 nM. Further, the IC50 with liver tumor cell HepG2 stood at 10 nM; in the assay on rectal cancer cell HT29 it was 6700 nM; with leukemia cell CCRF-CEM, 120 nM; in assay [3] it was 13500 nM; in assay [4], 90 nM; in the assay on melanoma cell A375 it was 4650 nM. The IC50 stood at 90900 nM in the assay with myeloma cell RPMI-8226; 70 nM in assay [5]; 7 nM in [6]; 760 nM in assay [7]; 8 nM in assay [8]; 7 nM in [9]. Besides, the IC50 is 4 nM in assay [10], 50 nM in the assay on bladder cancer cell 5637 and 10 nM in assay [11]. The “proliferation inhibition activity / inhibition ratio” value in [12] was 100%.

Take `CCON=C1c2ccccc2C(=O)c2c1[n+](C)cn2C.[I-]` [Compound 124, (E) and (Z)-4-(ethoxylimino)-1,3-dimethyl-9-oxo-4,9-dihydro-1H-naphthol[2,3-d]imidazole-3-iodide]: the half-maximal inhibitory concentration (IC50) with A549 (24 h or 48 h after addition) was determined as 9 nM; in the assay on HeLa, 11300 nM; in the assay with MCF-7 (24 h or 48 h after addition) it was 3300 nM; with L929 (24 h or 48 h after addition), 4600 nM; in assay [1], 340 nM; in assay [2] it was 450 nM. Moreover, the IC50 in the assay with liver tumor cell HepG2 came to 20 nM; in the assay on rectal cancer cell HT29, 7900 nM; in the assay with leukemia cell CCRF-CEM it was 220 nM; in assay [3], 23100 nM; in [4], 100 nM; in the assay on melanoma cell A375 it was 5650 nM. Also, the IC50 in the assay with myeloma cell RPMI-8226 was 99200 nM; in assay [5] it was 80 nM; in assay [6], 9 nM; in assay [7], 890 nM; in [8], 9 nM; in [9] it was 8 nM. The IC50 is 6 nM in assay [10], 60 nM with bladder cancer cell 5637 and 20 nM in assay [11]. Also, in [12], the “proliferation inhibition activity / inhibition ratio” value is given as 100%.

Regarding `Cn1c[n+](C)c2c1C(=O)c1ccccc1/C2=N\OCCOCc1ccccc1` [Compound 145, (E)-4-((2-(benzyloxy)ethoxy)imino)-1,3-dimethyl-9-oxo-4,9-dihydro-1H-naphthol[2,3-d]imidazole-3-iodide], the 50% inhibitory concentration (IC50) with A549 (setting [13]) was found to be 40 nM; in the assay with HeLa (Homo sapiens, HeLa), 34200 nM; with MCF-7 (setting [14]), 34800 nM; in the assay with L929 (setting [15]), 45100 nM.

On to `COCCOCCO/N=C1\c2ccccc2C(=O)c2c1[n+](C)cn2C` [Compound 146, (E)-4-((2-(2-methoxyethoxy)ethoxy)imino)-1,3-dimethyl-9-oxo-4,9-dihydro-1H-naphthol[2,3-d]imidazole-3-iodide], for which the concentration for half-maximal inhibition (IC50) was 9 nM in the assay with A549 (setting [13]); 23000 nM with HeLa (Homo sapiens, HeLa); 32800 nM in the assay on MCF-7 (setting [14]); 24600 nM in the assay on L929 (setting [15]).

As for `COCCOCCOCCO/N=C1\c2ccccc2C(=O)c2c1[n+](C)cn2C` [Compound 147, (E) and (Z)-4-((2-(2-(2-methoxyethoxy)ethoxy)ethoxy)imino)-1,3-dimethyl-9-oxo-4,9-dihydro-1H-naphthol[2,3-d]imidazole-3-iodide], the IC50 in the assay on A549 (setting [13]) was 20 nM; in the assay with HeLa (Homo sapiens, HeLa) it was 13200 nM; with MCF-7 (setting [14]) it was 26800 nM; with L929 (setting [15]), 15700 nM.

For the compound `CCCCn1c2c([n+](C)c1-c1cc(OC)c(OC)c(OC)c1)C(=NOCc1ccccc1)c1ccccc1C2=O` [Compound 148, (E) and (Z)-4-((benzyloxy)imino)-1-butyl-3-methyl-9-oxo-2-(3,4,5-trimethoxyphenyl)-4,9-dihydro-1H-naphthol[2,3-d]imidazole-3-iodide], the 50% inhibitory concentration (IC50) with A549 (24 h or 48 h after addition) worked out at 90 nM; in the assay on HeLa, 23600 nM; with MCF-7 (24 h or 48 h after addition) it was 34600 nM; in the assay on L929 (24 h or 48 h after addition), 44100 nM.

As for `Cn1c[n+](C)c2c1C(=O)c1cc3ccccc3cc1C2=NOCc1ccccc1` [Compound 149, (E) and (Z)-4-((benzyloxy)imino)-1,3-dimethyl-11-oxo-4, 11-dihydro-1H-anthracene[2,3-d]imidazole-3-iodide], the IC50 was 330 nM in the assay on A549 (24 h or 48 h after addition), 67400 nM with HeLa, 75300 nM in the assay on MCF-7 (24 h or 48 h after addition) and more than 100000 nM in the assay on L929 (24 h or 48 h after addition).

For `C=CCON=C1c2cc3ccccc3cc2C(=O)c2c1[n+](C)cn2C` [Compound 150, (E) and (Z)-4-((allyloxy)imino)-1,3-dimethyl-11-oxo-4,11-dihydro-1H-anthracene[2,3-d]imidazole-3-iodide], the 50% inhibitory concentration (IC50) was 460 nM in the assay with A549 (24 h or 48 h after addition), 34400 nM in the assay on HeLa, 45900 nM in the assay with MCF-7 (24 h or 48 h after addition) and 97800 nM with L929 (24 h or 48 h after addition).

Regarding `Cn1c[n+](C)c2c1C(=O)c1cc3ccccc3cc1C2=NOCc1ccc([N+](=O)[O-])cc1` [Compound 151, (E) and (Z)-1,3-dimethyl-4-(((4-nitrobenzyl)oxy)imino)-11-oxo-4,11-dihydro-1H-anthracene[2,3-d]imidazole-3-iodide], the IC50 with A549 (24 h or 48 h after addition) came to 120 nM; in the assay with HeLa it was 56800 nM; with MCF-7 (24 h or 48 h after addition), 78800 nM; in the assay on L929 (24 h or 48 h after addition), 89600 nM.

Turning to “(E) and (Z)-4-(butoxyimino)-1,3-dimethyl-9-oxo-4,9-dihydro-1H-naphthol[2,3-d] [Compound 128]”, the IC50 in the assay with A549 (24 h or 48 h after addition) was found to be 4 nM; with HeLa it was 4800 nM; in the assay on MCF-7 (24 h or 48 h after addition) it was 2900 nM; with L929 (24 h or 48 h after addition) it was 6500 nM; in assay [1], 140 nM; in assay [2] it was 170 nM. The half-maximal inhibitory concentration (IC50) stood at 20 nM with liver tumor cell HepG2; 9800 nM in the assay with rectal cancer cell HT29; 530 nM with leukemia cell CCRF-CEM; 8800 nM in [3]; 80 nM in [4]; 1660 nM in the assay with melanoma cell A375. For the same compound, the 50% inhibitory concentration (IC50) with myeloma cell RPMI-8226 amounted to 78900 nM; in [5], 9 nM; in [6] it was 8 nM; in assay [7], 100 nM; in assay [8] it was 9 nM; in assay [9], 8 nM. Moreover, the IC50 in [10] stood at 6 nM; with bladder cancer cell 5637 it was 10 nM; in assay [11], 9 nM. In addition, the “proliferation inhibition activity / inhibition ratio” value in assay [12] was found to be 100%.

The values are drawn from patent publication US20250163002A1, “FUSED QUINONOXIME IMIDAZOLE, ONIUM DERIVATIVES THEREOF, PREPARATION AND USE THEREOF” (SHANGHAI JIAO TONG UNIVERSITY, priority 2022, published 2025).
